In publication PMC7018972, “Novel and selective inactivators of Triosephosphate isomerase with anti-trematode activity” (Scientific Reports, 2020):

Columns and labels:
rabbit TIM = molecular target: T1, rabbit TIM (Oryctolagus cuniculus, UniProt P00939); experiment: Selectivity assay, inhibition of rabbit TIM; format: biochemical; settings: read-out: inhibition against rabbit TIM
T1 construct: made in house; host or cells: Escherichia coli
Experimental: Expression and purification of proteins: FhTIM, RabbitTIM and HsTIM were expressed in Escherichia coli and purified as described in the literature[31],[37]. After purification, the enzyme, dissolved in 100 mM triethanolamine, 10 mM EDTA and 1 mM dithiothreitol (pH 8), was precipitated with ammonium sulfate (75% saturation) and stored at 4 °C. Before use, extensive dialysis against 100 mM triethanolamine/10 mM EDTA (pH 7.4) was performed. Protein concentration was determined by absorbance at 280 nm for FhTIM (ε = 33,460 M^−1cm^−1) and for RabbitTIM and HsTIM (ε = 33,460 M^−1cm^−1). Enzymatic activity was determined following the conversion of glyceraldehydes-3-phosphate into dihydroxyacetone phosphate in a coupled enzyme assay. The decrease in absorbance at 340 nm was followed in a multiplate reader VarioskanTM Flash Multimode Reader (Thermo ScientificTM, Waltham, MA, USA) at 38 °C. The reaction mixture (1 mL, pH 7.4) contained 100 mM triethanolamine, 10 mM EDTA, 0.2 mM NADH, 1 mM glyceraldehydes-3-phosphate and 0.9 units of α-glycerol phosphate dehydrogenase. The reaction was initiated by the addition of 5 ng/mL of the TIM of interest. For the inhibition studies, TIM was incubated at a concentration of 5 mg/mL in a buffer containing 100 mM triethanolamine, 10 mM EDTA, pH 7.4 and 10% of DMSO at 37 °C for 1 h. The mixture also contained the compounds, dissolved in DMSO, at the indicated concentrations. After 1 h, 10 µL were withdrawn and added to a final volume of 100 µL of the reaction mixture for the activity assay. The inhibition assay was performed in a 96-well microplate. None of the molecules tested here affected the activity of α-glycerol phosphate dehydrogenase, the enzyme used in the coupled assay. The IC50 value was taken as the concentration of drug needed to reduce the enzymatic activity to 50% by analysis using OriginLab8.5® sigmoidal regression (% of enzymatic activity vs. the logarithm of the compound concentration). The experiments were performed in triplicate in two independent experiments.

[1] = tested on: F. hepatica infected mice; experiment: Mouse infection with F. hepatica; format: in vivo, BALB/c mice; settings: for protection of mice from F. hepatica infection (clinical signs, Clinic Score): one dose 100 mg/kg orogastric, 1 week post-infection, read at 3 wpi; for transaminase profile at the end of the experiment: one dose 100 mg/kg, infected mice
Experimental: Six- to eight-week-old female BALB/c mice were obtained from DILAVE Laboratories[57] (Uruguay). Animals were kept in the animal house (URBE, Facultad de Medicina, UdelaR, Uruguay) with water and food supplied ad libitum. Mouse handling and experiments were carried out in accordance with strict guidelines from the National Committee on Animal Research (CNEA, Uruguay). All procedures involving animals were approved by the Universidad de la República’s Committee on Animal Research (CHEA Protocol Number: 070153-000180-16). BALB/c mice were orally infected with 10 F. hepatica metacercariae per animal. After 1 week post-infection (wpi), mice were intragastrically inoculated with compound 187 (100 mg/kg) or TCZ (100 mg/kg). At 3 wpi mice were bled and sacrificed. Peritoneal exudate cells, spleens, and livers were removed and analyzed. In order to evaluate the severity of the infection, a disease severity score was developed (Table 3S Supporting Information)[57], which was applied in blinded experiments. Alanine aminotransferase (ALT) activity in sera was determined using a commercial kit (Spinreact, Spain) according to the manufacturers’ instructions. PECs from infected and non-infected mice were washed twice with PBS containing 2% FBS and 0.1% sodium azide.

[2] = tested on: murine macrophages and bovine sperm; experiment: Non-specific toxicity against mammalian cells; format: cell-based; settings: for Toxicity mammalian cells: selectivity index parasite vs. mammalian cells, fixed doses 25 and 100 µM
Experimental: As a proof of concept, we tested the best FhTIM inactivators against F. hepatica and S. mansoni parasites. Also, we use compound 191 as a non-inhibitor which has a closely related structure to that of compound 187. Some compounds were able to kill 100% of the newly excysted juvenile (NEJ) F. hepatica within 4 to 48 h (Table 2 and Fig. 2). […] In parallel, these compounds were assayed to characterize their non-specific toxicity against murine macrophages and bovine sperm. Both models are recommended by FDA as an in vitro prediction of toxicology.
J774.1 murine macrophage cells (ATCC, USA) were grown in DMEM culture milieu containing 4 mM glutamine and supplemented with 10% FCS[20]. The cells were seeded in a 96-well plate (5×10^4 cells in 200 µL culture medium) and incubated at 37 °C in a 5% CO2 atmosphere for 48 h, to allow cell adhesion prior to drug testing. Afterward, cells were exposed for 48 h to the compounds (25–400 µM) or the vehicle for control (0.4% DMSO), and additional controls (cells in medium) were used in each test. Cell viability was then assessed by measuring the mitochondria-dependent reduction of MTT (3-(4,5-dimethylthiazol-2-yl)-2,5-diphenyltetrazolium bromide) to formazan. For this purpose, MTT in sterile PBS (0.2% glucose), pH 7.4, was added to the macrophages to achieve a final concentration of 0.1 mg/mL, and the cells were incubated at 37 °C for 3 h. After removing the medium, formazan crystals were dissolved in 180 µL of DMSO and 20 µL of MTT buffer (0.1 M glycine, 0.1 M NaCl, 0.5 mM EDTA, pH 10.5), and the absorbance at 560 nm was measured. The IC50 was defined as the drug concentration at which 50% of the cells were viable, relative to the control (no drug added), and was determined by analysis using OriginLab8.5® sigmoidal regression (% of viable cells vs. the logarithm of the compound concentration). Tests were performed in triplicate.
Semen samples were obtained from a healthy fertile Hereford bull and kept frozen in 0.5 mL straws (extended in Andromed, Minitube, Germany[47]) under liquid nitrogen until use. The semen used belonged to a single freezing batch that was obtained during a regular collection schedule with an artificial vagina. Samples from three straws were thawed and a sperm pool was prepared in PBS at a concentration of 40 million spermatozoa per mL, then 50 μL of this sperm suspension was carefully mixed with 50 μL of compounds diluted to 100, 50, 25, 12.5 and 6.25 μM or with 1% DMSO in control experiments. Each condition was assayed by duplicate in 96-well plates and controls were assayed by triplicate. Plates were incubated at 37 °C for 1 h with moderate shaking. The motility analysis was carried out using a CASA (Computer Assisted Semen Analyzer) system Androvision (Minitube, Tiefenbach, Germany) with an Olympus BX 41 microscope (Olympus, Japan) equipped with a warm-stage at 37 °C. Each sample (10 μL) was placed onto a Makler Counting Chamber (depth 10 μm, Sefi-Medical Instruments, Israel) and the following parameters were evaluated: percentage of total motile spermatozoa (motility >5 μm/s) and velocity curved line (VCL, >24 μm/s). At least 400 spermatozoa were analyzed from each sample from at least four microscope fields.

T1 sequence (P00939 whole entry): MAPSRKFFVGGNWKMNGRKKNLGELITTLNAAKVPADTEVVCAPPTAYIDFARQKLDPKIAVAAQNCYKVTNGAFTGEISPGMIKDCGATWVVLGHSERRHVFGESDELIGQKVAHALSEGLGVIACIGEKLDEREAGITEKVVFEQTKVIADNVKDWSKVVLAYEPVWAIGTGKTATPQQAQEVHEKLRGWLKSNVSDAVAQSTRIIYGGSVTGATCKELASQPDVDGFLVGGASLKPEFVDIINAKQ

Compound | inhibition at 100 µM (rabbit TIM) [%] | protection of mice from F. hepatica infection (clinical signs, Clinic Score) [1] | transaminase profile at the end of the experiment [1] | toxicity to mammalian cells in words ([2]; herein) | Toxicity mammalian cells [2]
Cc1ccc(-c2nsc(S(=O)(=O)c3ccc(C)cc3)n2)cc1 [Compound 187] | < 20 | protected mice from the infection | according to a healthy liver | non-toxic | NT (when the IC50 vs. the parasite was at least 10 times less than the IC50 vs. the mammalian cells, we considered these compounds as non-toxic (NT))
CSc1nc2cc(Cl)c(Oc3cccc(Cl)c3Cl)cc2[nH]1 [Compound 1278, triclabendazole, reference compound] | < 20 | protected mice from the infection | according to a healthy liver |  | NT (when the IC50 vs. the parasite was at least 10 times less than the IC50 vs. the mammalian cells, we considered these compounds as non-toxic (NT))
